Data on 23 compounds can be found in ChEMBL document CHEMBL3244194, “beta-Adrenoceptor blocking activity of halogenated thienylethanolamine derivatives” (J Med Chem, 1977).

Series [1] can be described thus: Acute toxicity in iv dosed mouse. Conditions: in vivo.
Series [2] deals with Rattus norvegicus. The series is described as follows: In vivo inhibition of beta-adrenoceptor in Wistar rat assessed as decrease in heart rate at 4 mg/kg, iv relative to control. It counts as functional.
In series [3] the test system is Rattus norvegicus. The series is described as follows: In vivo inhibition of beta-adrenoceptor in Wistar rat assessed as inhibition of isoproterenol-induced tachycardia at 4 mg/kg, iv relative to control. It counts as functional.
For series [4], the system named is Felis catus. The series is described as follows: In vivo inhibition of beta-adrenoceptor in cat assessed as inhibition of isoproterenol-induced hypotension at 0.1 mg/kg, iv relative to control. It counts as functional.
The subject of series [5] is Felis catus. Nature of the series: In vivo inhibition of beta-adrenoceptor in cat assessed as inhibition of isoproterenol-induced hypotension at 1 mg/kg, iv relative to control. It counts as functional.
Series [6] concerns Felis catus. The series is described as follows: In vivo inhibition of beta-adrenoceptor in cat assessed as inhibition of isoproterenol-induced tachycardia at 1 mg/kg, iv relative to control. It counts as functional.
For series [7], the system named is Felis catus. Nature of the series: In vivo inhibition of beta-adrenoceptor in cat assessed as inhibition of isoproterenol-induced tachycardia at 0.1 mg/kg, iv relative to control. It counts as functional.
The test system of series [8] is Mus musculus. Nature of the series: Local anesthetic activity in ICR Swiss mouse assessed as inhibition of pain reflex response at 0.5%, id relative to control. It counts as functional.
In series [9] the test system is Mus musculus. Nature of the series: Local anesthetic activity in ICR Swiss mouse assessed as inhibition of pain reflex response at 1%, id relative to control. It counts as functional, organism-based.
For series [10], the system named is Cavia porcellus. The series is described as follows: In vivo inhibition of beta-adrenoceptor in histamine-treated guinea pig assessed as inhibition of isoproterenol-induced bronchodilator effect at 0.1 mg/kg, iv administered 3 mins prior to histamine/isoproterenol challenge relative to control. It counts as functional.
Series [11] concerns Felis catus. Nature of the series: In vivo inhibition of beta-adrenoceptor in cat assessed as inhibition of isoproterenol-induced tachycardia at 0.05 mg/kg, iv relative to control. It counts as functional.
Series [12] relates to Cavia porcellus. Nature of the series: In vivo inhibition of beta-adrenoceptor in histamine-treated guinea pig assessed as inhibition of isoproterenol-induced bronchodilator effect at 0.01 mg/kg, iv administered 3 mins prior to histamine/isoproterenol challenge relative to control. It counts as functional, organism-based. Also on record: dose 0.01 mg/kg.

The structures appear in SMILES notation. Activity calls are given as the source filed them. The calls are words filed in the database; no cut-off is given here.

As usually defined, the LD50 is the dose at which mortality reaches 50%. Read a low LD50 as a more toxic substance. As usually defined, the inhibition in vivo is how much of the control response was suppressed. In series [1], `CC(C)NCC(O)c1sccc1Cl` (racemic) registered a 50% lethal dose (LD50) of 38 mg/kg. Also, the inhibition in vivo at 4 mg/kg in series [2] and in [3] was 0% each time.

The compound `CC(C)(C)NCC(O)c1sccc1Cl` (racemic) registered an LD50 in series [1] of 25 mg/kg. Also, the inhibition in vivo at 4 mg/kg in series [2] and in [3] was 0% in each case.

In the case of `CC(C)NCC(O)c1cc(Cl)cs1` (racemic), the 50% lethal dose (LD50) in [1] is 35 mg/kg. Also, the figures for the inhibition in vivo at 0.1 mg/kg in [4] and in series [7] were 57% and 62%, respectively. The inhibition in vivo at 4 mg/kg in [2] worked out at 8%; in series [3], 86%. The inhibition in vivo at 1 mg/kg came out at 75% in series [5] and 90% in [6].

With `CC(C)(C)NCC(O)c1cc(Cl)cs1` (racemic), the 50% lethal dose (LD50) in series [1] amounted to 38 mg/kg. The values for the inhibition in vivo at 4 mg/kg in series [2] and in series [3] were 6% and 53%, respectively.

As for `CC(C)NCC(O)c1sc(Cl)cc1Cl` (racemic), the median lethal dose (LD50) in series [1] stood at 35 mg/kg. For the same compound, the inhibition in vivo at 4 mg/kg came out at 28% in [2] and 70% in [3].

In series [1], `CC(C)(C)NCC(O)c1sc(Cl)cc1Cl` (racemic) returned an LD50 of 30 mg/kg. Besides, the inhibition in vivo at 0.1 mg/kg in series [4] was determined as 55%; in series [7] it was 65%. Moreover, the inhibition in vivo at 4 mg/kg in series [2] worked out at 32%; in [3], 75%. In addition, the inhibition in vivo at 1 mg/kg in series [5] is 65%; in [6], 74%.

`CC(C)NCC(O)c1sc(Cl)c(Cl)c1Cl` (racemic) returned an LD50 in series [1] of 35 mg/kg. The values for the inhibition in vivo at 0.1 mg/kg in [4] and in series [7] were 52% and 58%, respectively. Moreover, the inhibition in vivo at 4 mg/kg was found to be 20% in series [2] and 90% in [3]. For the same compound, the inhibition in vivo at 1 mg/kg in series [5] was 85%; in series [6] it was 100%.

`CC(C)(C)NCC(O)c1sc(Cl)c(Cl)c1Cl` (racemic): the “inhibition (INH)” value in series [8] is on record as 52%. Besides, in series [1], the median lethal dose (LD50) came to 40 mg/kg. Further, the inhibition in vivo at 0.1 mg/kg was 87% in series [4], 100% in [10] and 69% in [7]. Besides, the figures for the inhibition in vivo at 4 mg/kg in series [2] and in series [3] were 26% and 89%, respectively. Also, in [9], the “local anesthetic activity (active/inactive)” value was “Active”. Also, the inhibition in vivo at 1 mg/kg in series [5] stood at 100%; in series [6] it was 98%.

In the case of `CC(C)NCC(O)c1ccc(Br)s1.Cl` (racemic), the “inhibition (INH)” value in [8] stood at 52%. The LD50 in [1] worked out at 45 mg/kg. Also, the inhibition in vivo at 0.1 mg/kg was found to be 50% in series [4] and 67.5% in series [7]. The inhibition in vivo at 4 mg/kg in [2] amounted to 11%; in series [3], 87%. Besides, the “local anesthetic activity (active/inactive)” value in [9] was “Active”. Moreover, the values for the inhibition in vivo at 1 mg/kg in series [5] and in [6] were 72% and 82%, respectively.

Turning to `CC(C)(C)NCC(O)c1ccc(Br)s1` (racemic), in series [1], the LD50 was found to be 27 mg/kg. In addition, the inhibition in vivo at 4 mg/kg was determined as 8% in series [2] and 55.5% in series [3].

The compound `CC(C)NCC(O)c1sccc1Br` (racemic) yielded a 50% lethal dose (LD50) in [1] of 35 mg/kg. The inhibition in vivo at 4 mg/kg in [2] and in [3] was 0% in each case.

In series [1], `CC(C)(C)NCC(O)c1sccc1Br` (racemic) gave an LD50 of 25 mg/kg. Besides, the inhibition in vivo at 4 mg/kg in series [2] turned out to be 10%; in [3], 12.5%.

With `CC(C)NCC(O)c1cc(Br)cs1` (racemic), in series [1], the LD50 amounted to 42 mg/kg. Also, the inhibition in vivo at 0.1 mg/kg worked out at 53% in series [4] and 70% in series [7]. Further, the inhibition in vivo at 4 mg/kg came to 11% in [2] and 89.5% in series [3]. Moreover, the figures for the inhibition in vivo at 1 mg/kg in series [5] and in series [6] were 82% and 90%, respectively.

The compound `CC(C)(C)NCC(O)c1cc(Br)cs1` (racemic) came in with an LD50 in [1] of 35 mg/kg. Moreover, the inhibition in vivo at 0.1 mg/kg in [4] came out at 0%; in series [10] it was 25%; in series [7], 33%. Moreover, the inhibition in vivo at 4 mg/kg in series [2] was determined as 17%; in series [3], 50%. Besides, the figures for the inhibition in vivo at 1 mg/kg in [5] and in [6] were 50% and 67%, respectively.

Take `CC(C)NCC(O)c1cc(Br)c(Br)s1.Cl` (racemic): the “inhibition (INH)” value in [8] stood at 72.5%. This compound also came in with an LD50 in [1] of 45 mg/kg. Further, the inhibition in vivo at 0.1 mg/kg worked out at 75% in [4], 40% in [10] and 92.5% in series [7]. The figures for the inhibition in vivo at 4 mg/kg in series [2] and in [3] were 25% and 100%, respectively. Also, in series [9], the “local anesthetic activity (active/inactive)” value is “Active”. The inhibition in vivo at 1 mg/kg in series [5] and in [6] was 100% throughout. In addition, the inhibition in vivo at 0.05 mg/kg in [11] came to 78%. Moreover, in series [12], the inhibition entry is “inactive”.

With `CC(C)(C)NCC(O)c1cc(Br)c(Br)s1` (racemic), in series [8], the “inhibition (INH)” value came out at 100%. Besides, the LD50 in series [1] amounted to 38 mg/kg. Besides, the inhibition in vivo at 0.1 mg/kg in [4] was found to be 58%; in series [10], 100%; in series [7], 87.5%. For the same compound, the inhibition in vivo at 4 mg/kg in series [2] was found to be 18%; in [3] it was 92%. Further, in series [9], the “local anesthetic activity (active/inactive)” value was “Active”. For the same compound, the inhibition in vivo at 1 mg/kg amounted to 95% in series [5] and 100% in [6]. Moreover, in series [11], the inhibition in vivo at 0.05 mg/kg came to 61%.

`CC(C)NCC(O)c1sc(Br)cc1Br` (racemic) had an LD50 in series [1] of 35 mg/kg. In addition, the inhibition in vivo at 4 mg/kg in series [2] is 14%; in [3] it was 77.5%.

In the case of `CC(C)(C)NCC(O)c1sc(Br)cc1Br` (racemic), the “inhibition (INH)” value in series [8] was found to be 82%. The compound further registered an LD50 in [1] of 42 mg/kg. Also, the inhibition in vivo at 0.1 mg/kg was 45% in series [4] and 50% in [7]. Also, the inhibition in vivo at 4 mg/kg turned out to be 17% in [2] and 78% in series [3]. Moreover, in [9], the “local anesthetic activity (active/inactive)” value is “Active”. In addition, the inhibition in vivo at 1 mg/kg in series [5] came out at 89%; in series [6], 88%.

`CC(C)NCC(O)c1scc(Br)c1Br.Cl` (racemic) gave an LD50 in series [1] of 27 mg/kg. Besides, the inhibition in vivo at 4 mg/kg is 10% in series [2] and 92% in series [3].

On to `CC(C)(C)NCC(O)c1scc(Br)c1Br` (racemic), for which the “inhibition (INH)” value in [8] stood at 75%. In series [1], this compound registered an LD50 of 28 mg/kg. Further, the inhibition in vivo at 0.1 mg/kg in series [4] was 64%; in series [10] it was 100%; in [7], 53%. Also, the inhibition in vivo at 4 mg/kg in series [2] is 36%; in [3], 95%. In series [9], the “local anesthetic activity (active/inactive)” value is “Active”. For the same compound, the inhibition in vivo at 1 mg/kg was 97% in series [5] and 92% in series [6].

`CC(C)NCC(O)c1sc(Br)c(Br)c1Br` (racemic): the “inhibition (INH)” value in [8] was found to be 40%. In series [1], the LD50 stood at 35 mg/kg. Also, the values for the inhibition in vivo at 0.1 mg/kg in [4] and in series [7] were 65% and 50%, respectively. The results for the inhibition in vivo at 4 mg/kg in [2] and in series [3] were 10% and 75%, respectively. The “local anesthetic activity (active/inactive)” value in series [9] is “Active”. The inhibition in vivo at 1 mg/kg in [5] came to 88%; in series [6], 95%.

In the case of `CC(C)(C)NCC(O)c1sc(Br)c(Br)c1Br` (racemic), the LD50 in series [1] was found to be 32 mg/kg. Besides, the inhibition in vivo at 0.1 mg/kg in series [4] turned out to be 77.5%; in series [7] it was 72.5%. In addition, the inhibition in vivo at 4 mg/kg in series [2] turned out to be 12%; in series [3] it was 90%. The inhibition in vivo at 1 mg/kg in [5] and in series [6] was 100% throughout.

For the compound `CC(C)NCC(O)COc1cccc2ccccc12` (stereo not given) [PROPRANOLOL], the “inhibition (INH)” value in [8] came out at 93%. In addition, the inhibition in vivo at 0.1 mg/kg in series [4] stood at 85%; in [10], 100%; in [7] it was 87%. Besides, the inhibition in vivo at 4 mg/kg stood at 32% in series [2] and 95% in series [3]. The “local anesthetic activity (active/inactive)” value in [9] is “Active”. Besides, the inhibition in vivo at 1 mg/kg in [5] and in series [6] was 100% each time. Moreover, in series [12], the inhibition result was “Active”.
